Assay results taken from patent publication US20190290685A1, “COMPOSITIONS AND ASSOCIATED METHODS OF MESOPOROUS NANOPARTICLES COMPRISING PLATINUM-ACRIDINE MOLECULES” (Wake Forest University, priority 2016, published 2019).
Entries after “also recorded” stand apart in the source; their conditions may differ.

Key:
BxPC3 cells = assay: Flow cytometry cell cycle analysis; assay type: cell-based, human; details: BxPC3, 48 h, micromolar-to-submicromolar concentrations; dinitrate salt
Procedure: BxPC3 cells were treated with P1A1@MSNLP-COOH-LIP10, P1A1, or MSNLP-COOH-LIP10 for 48 h at the indicated concentrations. Cells were gently trypsinized, washed in PBS, fixed in ice-cold EtOH:PBS (1:1) at equivalent cell concentrations, and stored at −20° C. Cells were washed with PBS, stained using FxCycle PI/RNase staining solution (Molecular Probes, Eugene, Oreg.) and assessed by flow cytometry using an Accuri C6 (BD Biosciences, San Jose, Calif.). Data was analyzed using Modfit software v3.3.

[1] = test system: BxPC3 pancreatic cancer cells; assay: Confocal fluorescence microscopy, uptake and subcellular distribution; assay type: cell-based, human; details: BxPC3, 5 μM P1A1 or equivalent, 1 h and 12 h
Procedure: BxPC3 cells were seeded onto chamber slides (Nunc, Rochester, N.Y.) and allowed to attach for 48 h. Cells were then treated with 5 μM P1A1, P1A1@MSNLP-COOH-LIP10 at an equivalent concentration of drug, or vehicle. The medium was aspirated and cells were co-stained by incubating with 75 nM Lysotracker Red in complete medium for 1 h. Cells were washed 3× with PBS and fixed in 4% formaldehyde/PBS for 15 min. After another three PBS washes, cover slips were mounted onto 4-well chamber slides using vectashield HardSet mounting medium (Vector Labs, Burlingame, Calif.) and stored at 4° C. until ready to use. Images were collected using a Zeiss LSM 710 confocal microscope (Carl Zeiss MicroImaging, Thornwood, N.Y.) using a 63× (PLAN Oil APO, 1.4 NA) objective lens. All image channels were acquired in a sequential mode to minimize excitation cross talk and emission bleed-through. […] For comparative fluorescence intensity analysis, great care was taken to equalize excitation power, pinhole settings, PMT gain, and offset values across and within imaging sessions for each respective channel. […] Where necessary, post-acquisition contrast adjustments were applied to the entire image, and processing was identical in all fluorescence channels. […]

[PtCl(en)(N-[acridin-9-ylaminoethyl]-N-methylpropionamidine)] dinitrate salt [Compound P1A1]
effect on cell cycle distribution (BxPC3 cells): robust S phase arrest; also recorded: sub-G1 population at the highest dose | uptake and subcellular distribution [1]: accumulates rapidly (about 1 h) in cells to produce blue fluorescence associated with the entire cytoplasm and, to a lesser extent, the nuclear region
